Experimental data: US7786136B2, “Indazole-carboxamide compounds” (Theravance, Inc., priority 2004, dated 2010)

Experiment: Pharmacokinetic study in the rat
Type: in vivo
Protocol: Pharmacokinetic Study in the Rat
Aqueous solution formulations of test compounds were prepared in 0.1% lactic acid at a pH of between about 5 and about 6. Male Sprague-Dawley rats (CD strain, Charles River Laboratories, Wilmington, Mass.) were dosed with test compounds via intravenous administration (IV) at a dose of 2.5 mg/kg or by oral gavage (PO) at a dose of 5 mg/kg. The dosing volume was 1 mL/kg for IV and 2 mL/kg for PO administration. Serial blood samples were collected from animals pre-dose, and at 2 (IV only), 5, 15, and 30 min, and at 1, 2, 4, 8, and 24 hours post-dose. Concentrations of test compounds in blood plasma were determined by liquid chromatography-mass spectrometry analysis (LC-MS/MS) (MDS SCIEX, API 4000, Applied Biosystems, Foster City, Calif.) with a lower limit of quantitation of 1 ng/mL.
Standard pharmacokinetic parameters were assessed by non-compartmental analysis (Model 201 for IV and Model 200 for PO) using WinNonlin (Version 4.0.1, Pharsight, Mountain View, Calif.). The maximum in the curve of test compound concentration in blood plasma vs. time is denoted Cmax. The area under the concentration vs. time curve from the time of dosing to the last measurable concentration (AUC(0-t)) was calculated by the linear trapezoidal rule. Oral bioavailability (F(%)), i.e. the dose-normalized ratio of AUC(0-t) for PO administration to AUC(0-t) for IV administration, was calculated as: F(%)=AUCPO/AUCIV×DoseIV/DosePO×100%

[1] = male Sprague-Dawley rats, blood plasma, IV 2.5 mg/kg or PO 5 mg/kg

CC(C)n1nc(C(=O)N[C@H]2C[C@H]3CC[C@@H](C2)N3CC(O)CN2CCN(C(=O)C3CCCO3)CC2)c2ccccc21 (stereo partly drawn) [Example 2, 1-isopropyl-1H-indazole-3-carboxylic acid((1S,3R,5R)-8-{2-hydroxy-3-[4-(tetrahydrofuran-2-carbonyl)piperazin-1-yl]propyl}-8-aza-bicyclo[3.2.1]oct-3-yl)amide]
AUC(0-t) [1]: 0.427 µg·h/mL | Cmax [1]: 0.055 µg/mL | oral bioavailability (F(%)) (rat, dose-normalized AUC(0-t) PO 5 mg/kg vs IV 2.5 mg/kg): about 30%
